Measurements: patent US10669268B2, “Bicyclic derivatives” (Hoffmann-La Roche Inc., priority 2012, dated 2020)

Target: ATX (human His-tagged) (Homo sapiens (Human), UniProt Q13822)
Assay: Human ATX enzyme inhibition assay (fluorescence quenching, MR121 substrate)
Type: biochemical
Conditions: 30 nM ATX, 1 μM MR121 substrate, 30° C., pH 8.0
Procedure: Human ATX Enzyme Inhibition Assay
Assay working solutions were made as follows:
Assay buffer (50 mM Tris-HCl, 140 mM NaCl, 5 mM KCl, 1 mM CaCl2, 1 mM MgCl2, 0.01% Triton-X-100, pH 8.0;
MR121 substrate solution: MR121 substrate stock solution (800 μM MR121 substrate in DMSO), diluted to 2-5× final concentration in assay buffer.
10 μL of MR121 substrate solution was added (1 μM final concentration), mixed 30 times and then incubated for 15 minutes at 30° C.

Compound	IC50 [nM]
O=C(COc1cc(Cl)ccc1C(F)(F)F)N1CC[C@@H]2CN(C(=O)c3ccc4[nH]nnc4c3)C[C@@H]2CC1 [Example 1.41, 1-((3aR,8aS)-2-(1H-benzo[d][1,2,3]triazole-5-carbonyl)octahydropyrrolo[3,4-d]azepin-6(7H)-yl)-2-(5-chloro-2-(trifluoromethyl)phenoxy)ethanone]	2
COc1ccc(OCC(=O)N2CC[C@@H]3CN(C(=O)c4ccc5[nH]nnc5c4)C[C@@H]3CC2)c(C(C)(C)C)c1 [Example 1.42, 1-[(3aS,8aR)-2-(1H-benzotriazole-5-carbonyl)-1,3,3a,4,5,7,8,8a-octahydropyrrolo[3,4-d]azepin-6-yl]-2-(2-tert-butyl-4-methoxyphenoxy)ethanone]	7
CC(C)c1cc(C#N)ccc1OCC(=O)N1CC[C@@H]2CN(C(=O)c3ccc4[nH]nnc4c3)C[C@@H]2CC1 [Example 1.43, 4-[2-[(3aS,8aR)-2-(1H-benzotriazole-5-carbonyl)-1,3,3a,4,5,7,8,8a-octahydropyrrolo[3,4-d]azepin-6-yl]-2-oxoethoxy]-3-propan-2-ylbenzonitrile]	14
O=C(CCc1ccc(OCC(F)(F)F)cc1F)N1CC[C@@H]2CN(C(=O)c3ccc4[nH]nnc4c3)C[C@@H]2CC1 [Example 1.45, 1-[(3aS,8aR)-2-(1H-benzotriazole-5-carbonyl)-1,3,3a,4,5,7,8,8a-octahydropyrrolo[3,4-d]azepin-6-yl]-3-[2-fluoro-4-(2,2,2-trifluoroethoxy)phenyl]propan-1-one]	7
O=C(OCc1ccc(OCC(F)(F)F)c(F)c1)N1CC[C@@H]2CN(C(=O)c3ccc4[nH]nnc4c3)C[C@@H]2CC1 [Example 1.46, (3aS,8aR)-2-(1H-benzotriazole-5-carbonyl)-octahydro-pyrrolo[3,4-d]azepine-6-carboxylic acid 3-fluoro-4-(2,2,2-trifluoro-ethoxy)-benzyl ester]	2
O=C(OCc1ccc(OCC(F)(F)F)cc1F)N1CC[C@@H]2CN(C(=O)c3ccc4[nH]nnc4c3)C[C@@H]2CC1 [Example 1.47, (3aS,8aR)-2-(1H-benzotriazole-5-carbonyl)-octahydro-pyrrolo[3,4-d]azepine-6-carboxylic acid 2-fluoro-4-(2,2,2-trifluoro-ethoxy)-benzyl ester]	2
O=C(OCc1ccc(OCC(F)(F)F)cc1)N1CC[C@@H]2CN(C(=O)c3ccc4[nH]nnc4c3)C[C@@H]2CC1 [Example 1.48, (3aS,8aR)-2-(1H-benzotriazole-5-carbonyl)-octahydro-pyrrolo[3,4-d]azepine-6-carboxylic acid 4-(2,2,2-trifluoro-ethoxy)-benzyl ester]	7.5
O=C(OCc1ccc(OC(F)(F)F)cc1)N1C[C@@H]2CN(C(=O)c3cnc4[nH]nnc4c3)C[C@H]2C1 [Example 1.49, (3aS,6aS)-5-(3H-[1,2,3]triazolo[4,5-b]pyridine-6-carbonyl)-hexahydro-pyrrolo[3,4-c]pyrrole-2-carboxylic acid 4-trifluoromethoxy-benzyl ester]	218
O=C(CCc1ccc(OC(F)(F)F)cc1)N1C[C@@H]2CN(C(=O)c3ccc4[nH]nnc4n3)C[C@H]2C1 [Example 1.50, 1-[(3aR,6aR)-5-(1H-triazolo[4,5-b]pyridine-5-carbonyl)-1,3,3a,4,6,6a-hexahydropyrrolo[3,4-c]pyrrol-2-yl]-3-[4-(trifluoromethoxy)phenyl]propan-1-one]	17
O=C(OCc1ccc(OC(F)(F)F)cc1)N1C[C@@H]2CN(C(=O)c3cc4nn[nH]c4cn3)C[C@H]2C1 [Example 1.51, (3aS,6aS)-5-(3H-[1,2,3]triazolo[4,5-c]pyridine-6-carbonyl)-hexahydro-pyrrolo[3,4-c]pyrrole-2-carboxylic acid 4-trifluoromethoxy-benzyl ester]	41
O=C(OCc1ccc(OC(F)(F)F)cc1)N1C[C@@H]2CN(C(=O)c3ccc4[nH]nnc4c3F)C[C@H]2C1 [Example 1.52, (3aS,6aS)-5-(4-fluoro-1H-benzotriazole-5-carbonyl)-hexahydro-pyrrolo[3,4-c]pyrrole-2-carboxylic acid 4-trifluoromethoxy-benzyl ester]	16
O=C(OCc1ccc(OC(F)(F)F)cc1)N1C[C@@H]2CN(C(=O)c3cc(F)c4[nH]nnc4c3)C[C@H]2C1 [Example 1.53, (3aS,6aS)-5-(7-fluoro-1H-benzotriazole-5-carbonyl)-hexahydro-pyrrolo[3,4-c]pyrrole-2-carboxylic acid 4-trifluoromethoxy-benzyl ester]	52
O=C(OCc1ccc(OC(F)(F)F)cc1)N1C[C@@H]2CN(C(=O)c3cc4nn[nH]c4cc3F)C[C@H]2C1 [Example 1.54, (3aS,6aS)-5-(6-fluoro-1H-benzotriazole-5-carbonyl)-hexahydro-pyrrolo[3,4-c]pyrrole-2-carboxylic acid 4-trifluoromethoxy-benzyl ester]	22
O=C(OCc1ccc(OC(F)(F)F)cc1)N1C[C@@H]2CN(C(=O)c3ccc4[nH]nnc4c3Cl)C[C@H]2C1 [Example 1.55, (3aS,6aS)-5-(4-chloro-1H-benzotriazole-5-carbonyl)-hexahydro-pyrrolo[3,4-c]pyrrole-2-carboxylic acid 4-trifluoromethoxy-benzyl ester]	14
O=C(CCc1ccc(OC(F)(F)F)cc1)N1C[C@@H]2CN(C(=O)c3ccc4[nH]nnc4c3F)C[C@H]2C1 [Example 1.59, 1-[(3aR,6aR)-5-(4-fluoro-1H-benzotriazole-5-carbonyl)-hexahydro-pyrrolo[3,4-c]pyrrol-2-yl]-3-(4-trifluoromethoxy-phenyl)-propan-1-one]	6
CCOc1cc(C(=O)N2C[C@@H]3CN(C(=O)[C@@H]4CCc5[nH]nnc5C4)C[C@H]3C2)nc2ccccc12 [Example 1.60, (4-ethoxyquinolin-2-yl)((3aS,6aS)-5-((R)-4,5,6,7-tetrahydro-1H-benzo[d][1,2,3]triazole-5-carbonyl)hexahydropyrrolo[3,4-c]pyrrol-2(1H)-yl)methanone]	12
CCOc1cc(C(=O)N2C[C@@H]3CN(C(=O)c4ccc5[nH]nnc5c4F)C[C@H]3C2)nc2ccccc12 [Example 1.61, (4-ethoxyquinolin-2-yl)((3aS,6aS)-5-(4-fluoro-1H-benzo[d][1,2,3]triazole-5-carbonyl)hexahydropyrrolo[3,4-c]pyrrol-2(1H)-yl)methanone]	21
O=C(OCc1cc(Cl)cc(Cl)c1)N1C[C@@H]2CN(C(=O)c3ccc4[nH]c(=O)oc4c3)C[C@@H]2C1 [Example 2.01, (3aR,6aS)-3,5-dichlorobenzyl 5-(2-oxo-2,3-dihydrobenzo[d]oxazole-6-carbonyl)hexahydropyrrolo[3,4-c]pyrrole-2(1H)-carboxylate]	5
O=C(/C=C/c1ccc(OC(F)(F)F)cc1)N1CC[C@@H]2CN(C(=O)c3ccc4[nH]c(=O)oc4c3)C[C@@H]2CC1 [Example 2.02, 6-{(3aS,8aR)-6-[(E)-3-(4-trifluoromethoxy-phenyl)-acryloyl]-octahydro-pyrrolo[3,4-d]azepine-2-carbonyl}-3H-benzooxazol-2-one]	6
O=C(CCc1ccc(OC(F)(F)F)cc1)N1C[C@@H]2CN(C(=O)c3ccc4[nH]c(=O)oc4c3)C[C@H]2C1 [Example 2.03, 6-[(3aR,6aR)-2-[3-[4-(trifluoromethoxy)phenyl]propanoyl]-1,3,3a,4,6,6a-hexahydropyrrolo[3,4-c]pyrrole-5-carbonyl]-3H-1,3-benzoxazol-2-one]	5
O=C(OCc1ccc(OC(F)(F)F)cc1)N1C[C@@H]2CN(C(=O)c3ccc4[nH]c(=O)oc4c3)C[C@H]2C1 [Example 2.04, (3aS,6aS)-5-(2-oxo-2,3-dihydro-benzooxazole-6-carbonyl)-hexahydro-pyrrolo[3,4-c]pyrrole-2-carboxylic acid 4-trifluoromethoxy-benzyl ester]	8
O=C(OCc1cc(Cl)cc(Cl)c1)N1C[C@H]2C[C@H](Oc3ccc4[nH]c(=O)oc4c3)C[C@H]2C1 [Example 3, (3aR,5s,6aS)-3,5-Dichlorobenzyl 5-(2-oxo-2,3-dihydrobenzo[d]oxazol-6-yloxy)hexahydrocyclopenta[c]pyrrole-2(1H)-carboxylate]	36
O=C(OCc1cc(Cl)cc(Cl)c1)N1C[C@H]2C[C@@H](Oc3ccc4[nH]c(=O)oc4c3)C[C@H]2C1 [Example 3.01, (3aR,5r,6aS)-3,5-Dichlorobenzyl 5-(2-oxo-2,3-dihydrobenzo[d]oxazol-6-yloxy)hexahydrocyclopenta[c]pyrrole-2(1H)-carboxylate]	1090
O=C(OCc1cc(Cl)cc(Cl)c1)N1C[C@@H]2CN(C(=O)c3ccc4[nH]nnc4c3)C[C@H]2C1 [Example 4, (3aS,6aS)-3,5-Dichlorobenzyl 5-(1H-benzo[d][1,2,3]triazole-5-carbonyl)hexahydro-pyrrolo[3,4-c]pyrrole-2(1H)-carboxylate]	8
O=C(OCc1cc(Cl)cc(Cl)c1)N1C[C@H]2CN(C(=O)c3ccc4[nH]nnc4c3)C[C@@H]2C1 [Example 4.02, (3aR,6aR)-3,5-dichlorobenzyl 5-(1H-benzo[d][1,2,3]triazole-5-carbonyl)hexahydropyrrolo[3,4-c]pyrrole-2(1H)-carboxylate]	11
CS(=O)(=O)c1cc(Cl)cc(COC(=O)N2C[C@@H]3CN(C(=O)c4ccc5[nH]nnc5c4)C[C@H]3C2)c1 [Example 4.03, (3aS,6aS)-5-(1H-benzotriazole-5-carbonyl)-hexahydro-pyrrolo[3,4-c]pyrrole-2-carboxylic acid 3-chloro-5-methanesulfonyl-benzyl ester]	11
